Experimental data published in patent US20230202985A1, “Indoles, Indazoles, and Related Analogs for Inhibiting YAP/TAZ-TEAD” (THE KATHOLIEKE UNIVERSITEIT LEUVEN, priority 2021, published 2023).
pEC50: −log10 of the molar value.

System: YAP/TAZ-TEAD transcription
Assay: Reporter gene assay for measuring the inhibition of YAP/TAZ-TEAD transcription (TEAD-responsive element luciferase reporter in Hek293T cells)
Type: cell-based
Conditions: Homo sapiens, HEK-293T; Hek293T cells transfected with TEAD-responsive luciferase reporter, 24 hours incubation
Description: Hek293T cells are cultured in DMEM supplemented with 10% fetal bovine serum, Sodium pyruvate, Sodium bicarbonate, L-glutamine. The cells are harvested and transiently transfected with TEAD-responsive element luciferase reporter. Transfected cells are plated in 384-wells plate containing pre-diluted compounds. After 24 hours incubation at 37° C./5% CO2, assay plates were cooled down to RT and levelled to an equal volume per well, prior to the addition of 25 uL luciferase substrate SteadyLite (Perkin Elmer)/well. The plate was shaken for 10 min at 600 rpm, centrifuged for 1 min at 500 rpm and measured with an Envision reader (PerkinElmer). The amount of relative light units produced by the TEAD reporter is used to calculated percent of inhibition.
The percent of reporter inhibition was calculated in the presence of a positive control inhibitor (100% inhibition) versus a condition with the presence of the vehicle basal activity of the reporter (0% inhibition). The ability of a test compound to inhibit this activity was determined as:
Percentage inhibition=[1−((RLU determined in the presence of vehicle−RLU determined for sample with test compound present) divided by (RLU determined in the presence of vehicle−RLU determined for sample with positive control inhibitor))]*100
The activities of example compounds tested are depicted in Table 6. The activity ranges A, B and C refer to IC50 values in the reporter gene assay as follows: “A”: IC50<1 μM; “B”: 1 μM≤IC50≤20 μM and “C”: IC50>20 μM; NT=not tested.

Row | pEC50 | SMILES
1 | < 4.70 | Cn1ccc(-c2cc(-c3ccccc3)cn3cc(CC(=O)O)nc23)n1 [compound 35, 2-(8-(1-methyl-1H-pyrazol-3-yl)-6-phenylimidazo[1,2-a]pyridin-2-yl)acetic acid]
2 | 4.70 to 6.00 | CS(=N)(=O)NCc1nn(-c2ccc(C(F)(F)F)cc2)c2ccccc12 (centres unmarked) [compound 16, N-((1-(4-(trifluoromethyl)phenyl)-1H-indazol-3-yl)methyl)methanesulfonimidamide]
3 | < 4.70 | Cn1ccc(-c2cc(Nc3ccccc3)cn3cc(CC(=O)O)nc23)n1 [compound 38, 2-(8-(1-methyl-1H-pyrazol-3-yl)-6-(phenylamino)imidazo[1,2-a]pyridin-2-yl)acetic acid]
4 | 4.70 to 6.00 | CS(=O)(=O)NCc1nn(-c2ccc(C(F)(F)F)cc2)c2ccc(C(F)(F)F)cc12 [compound 73, N-[[5-(trifluoromethyl)-1-[4-(trifluoromethyl)phenyl]indazol-3-yl]methyl]methanesulfonamide]
5 | 4.70 to 6.00 | CS(=O)(=O)NCc1nn(-c2ccc(C(F)(F)F)cc2)c2cc(OC3CC3)ccc12 [compound 61, N-[[6-(cyclopropoxy)-1-[4-(trifluoromethyl)phenyl]indazol-3-yl]methyl]methanesulfonamide]
6 | 4.70 to 6.00 | CCC(=O)NCc1nn(-c2ccc(OC(F)(F)F)cc2)c2ccccc12 [compound 5, N-((1-(4-(trifluoromethoxy)phenyl)-1H-indazol-3-yl)methyl)propionamide]
7 | > 6.00 | C=C(CNc1nn(-c2ccc(C(F)(F)F)cc2)c2ccccc12)C(=O)O [compound 70, 2-[[[1-[4-(trifluoromethyl)phenyl]indazol-3-yl]amino]methyl]prop-2-enoic acid]
8 | < 4.70 | CCC(=O)NCc1nn(-c2ccc(C(F)(F)F)cc2)c2ccc(Oc3cc(=O)[nH]c(=O)n3C)cc12 [compound 53, N-[[5-(3-methyl-2,6-dioxo-pyrimidin-4-yl)oxy-1-[4-(trifluoromethyl)phenyl]indazol-3-yl]methyl]propanamide]
9 | 4.70 to 6.00 | O=S1(=O)CCCN1Cc1nn(-c2ccc(C(F)(F)F)cc2)c2ccccc12 [compound 7, 2-((1-(4-(trifluoromethyl)phenyl)-1H-indazol-3-yl)methyl)isothiazolidine 1,1-dioxide]
10 | < 4.70 | O=C(NS(=O)(=O)C1CC1)c1nn(-c2ccc(C(F)(F)F)cc2)c2ccccc12 [compound 14, N-(cyclopropylsulfonyl)-1-(4-(trifluoromethyl)phenyl)-1H-indazole-3-carboxamide]
11 | 4.70 to 6.00 | CS(=O)(=O)NCc1nn(-c2ccc(OC(F)(F)F)cc2)c2ccccc12 [compound 6, N-((1-(4-(trifluoromethoxy)phenyl)-1H-indazol-3-yl)methyl)methanesulfonamide]
12 | 4.70 to 6.00 | CC(=O)NCc1nn(-c2ccc(C(F)(F)F)cc2)c2ccc(C(F)(F)F)cc12 [compound 72, N-[[5-(trifluoromethyl)-1-[4-(trifluoromethyl)phenyl]indazol-3-yl]methyl]acetamide]
13 | < 4.70 | O=S(=O)(NCc1nn(-c2ccc(C(F)(F)F)cc2)c2ccccc12)c1cccnc1 [compound 10, N-((1-(4-(trifluoromethyl)phenyl)-1H-indazol-3-yl)methyl)pyridine-3-sulfonamide]
14 | 4.70 to 6.00 | C=CC(=O)Nc1cn(-c2cccc(Cl)c2)c2ccccc12 [compound 25, N-(1-(3-chlorophenyl)-1H-indol-3-yl)acrylamide]
15 | > 6.00 | C=CC(=O)NCc1nn(-c2ccc(C(F)(F)F)cc2)c2ccncc12 [compound 41, N-((1-(4-(trifluoromethyl)phenyl)-1H-pyrazolo[4,3-c]pyridin-3-yl)methyl)acrylamide]
16 | < 4.70 | CNC(=O)Cc1cn2cc(Nc3ccccc3)cc(-c3ccn(C)n3)c2n1 [compound 39, N-methyl-2-(8-(1-methyl-1H-pyrazol-3-yl)-6-(phenylamino)imidazo[1,2-a]pyridin-2-yl)acetamide]
17 | > 6.00 | C=CC(=O)Nc1cn(-c2ccc(C(C)C)cc2)c2ccccc12 [compound 23, N-(1-(4-isopropylphenyl)-1H-indol-3-yl)acrylamide]
18 | < 4.70 | CCC(=O)NCc1nn(-c2ccc(C(F)(F)F)cc2)c2ccc(OCC3CC3)cc12 [compound 67, N-[[5-(cyclopropylmethoxy)-1-[4-(trifluoromethyl)phenyl]indazol-3-yl]methyl]propanamide]
19 | 4.70 to 6.00 | CS(=O)(=O)NCc1nn(-c2ccc(C(F)(F)F)cc2)c2cc(C(F)(F)F)ccc12 [compound 76, N-[[6-(trifluoromethyl)-1-[4-(trifluoromethyl)phenyl]indazol-3-yl]methyl]methanesulfonamide]

Row | pEC50 | SMILES
20 | 4.70 to 6.00 | CS(=O)(=O)NCc1nn(-c2ccc(C(F)(F)F)cc2)c2ccc(OCc3cc[nH]n3)cc12 [compound 52, N-[[5-(1H-pyrazol-3-ylmethoxy)-1-[4-(trifluoromethyl)phenyl]indazol-3-yl]methyl]methanesulfonamide]
21 | < 4.70 | CCC(=O)NCc1nn(-c2ccc(C(F)(F)F)cc2)c2ccc(OCc3ccccc3)cc12 [compound 55, N-[[5-benzyloxy-1-[4-(trifluoromethyl)phenyl]indazol-3-yl]methyl]propanamide]
22 | 4.70 to 6.00 | N#CCS(=O)(=O)NCc1nn(-c2ccc(C(F)(F)F)cc2)c2ccccc12 [compound 57, 1-cyano-N-[[1-[4-(trifluoromethyl)phenyl]indazol-3-yl]methyl]methanesulfonamide]
23 | > 6.00 | O=C1OCCN1Cc1nn(-c2ccc(C(F)(F)F)cc2)c2ccccc12 [compound 18, 3-((1-(4-(trifluoromethyl)phenyl)-1H-indazol-3-yl)methyl)oxazolidin-2-one]
24 | < 4.70 | CCC(=O)NCc1cc2ccccc2n1-c1ccc(C(F)(F)F)cc1 [compound 30, N-((1-(4-(trifluoromethyl)phenyl)-1H-indol-2-yl)methyl)propionamide]
25 | < 4.70 | CNC(=O)Cc1cn2cc(-c3ccccc3)cc(-c3ccn(C)n3)c2n1 [compound 37, N-methyl-2-(8-(1-methyl-1H-pyrazol-3-yl)-6-phenylimidazo[1,2-a]pyridin-2-yl)acetamide]
26 | 4.70 to 6.00 | CS(=O)(=O)NCc1nn(-c2ccc(C(F)(F)F)cc2)c2ccc(OCc3ccccc3)cc12 [compound 56, N-[[5-benzyloxy-1-[4-(trifluoromethyl)phenyl]indazol-3-yl]methyl]methanesulfonamide]
27 | > 6.00 | C=CC(=O)Nc1cn(-c2ccc(Cl)cc2)c2ccccc12 [compound 24, N-(1-(4-chlorophenyl)-1H-indol-3-yl)acrylamide]
28 | > 6.00 | O=C1NCCN1Cc1nn(-c2ccc(C(F)(F)F)cc2)c2ccccc12 [compound 17, 1-((1-(4-(trifluoromethyl)phenyl)-1H-indazol-3-yl)methyl)imidazoiidin-2-one]
29 | 4.70 to 6.00 | CS(=O)(=O)NCc1nn(-c2ccc(C(F)(F)F)cc2)c2ccc(OCC3CCOC3)cc12 (racemic) [compound 44, N-[[5-[[rac-tetrahydrofuran-3-yl]methoxy]-1-[4-(trifluoromethyl)phenyl]indazol-3-yl]methyl]methanesulfonamide]
30 | > 6.00 | C=CC(=O)NCc1cc2ccccc2n1Cc1cccc(C(F)(F)F)c1 [compound 32, N-((1-(3-(trifluoromethyl)benzyl)-1H-indol-2-yl)methyl)acrylamide]
31 | < 4.70 | O=C(O)Cc1cn2cc(-c3ccccc3)cc(-c3cnn(Cc4cccnc4)c3)c2n1 [compound 36, 2-(6-phenyl-8-(1-(pyridin-3-ylmethyl)-1H-pyrazol-4-yl)imidazo[1,2-a]pyridin-2-yl)acetic acid]
32 | 4.70 to 6.00 | C=CC(=O)Nc1cn(-c2ccccc2)c2ccccc12 [compound 22, N-(1-phenyl-1H-indol-3-yl)acrylamide]
33 | > 6.00 | C=CC(=O)NCc1nn(-c2ccc(C(F)(F)F)cc2)c2ccc(Oc3cc(=O)[nH]c(=O)n3C)cc12 [compound 51, N-[[5-(3-methyl-2,6-dioxo-pyrimidin-4-yl)oxy-1-[4-(trifluoromethyl)phenyl]indazol-3-yl]methyl]prop-2-enamide]
34 | 4.70 to 6.00 | CCC(=O)NCc1cn(-c2ccc(C(F)(F)F)cc2)c2ccccc12 [compound 28, N-((1-(4-(trifluoromethyl)phenyl)-1H-indol-3-yl)methyl)propionamide]
35 | < 4.70 | O=C(O)COc1cccc2c1cnn2-c1ccc(C(F)(F)F)cc1 [compound 69, 2-[1-[4-(trifluoromethyl)phenyl]indazol-4-yl]oxyacetic acid]
36 | < 4.70 | Cn1c(Oc2ccc3c(c2)c(CNS(C)(=O)=O)nn3-c2ccc(C(F)(F)F)cc2)cc(=O)[nH]c1=O [compound 60, N-[[5-(3-methyl-2,6-dioxo-pyrimidin-4-yl)oxy-1-[4-(trifluoromethyl)phenyl]indazol-3-yl]methyl]methanesulfonamide]
37 | 4.70 to 6.00 | C=CC(=O)NC1C(=O)N(c2ccc(C(F)(F)F)cc2)c2ccccc21 (centres unmarked) [compound 33, N-(2-oxo-1-(4-(trifluoromethyl)phenyl)indolin-3-yl)acrylamide]
38 | 4.70 to 6.00 | CN(C)S(=O)(=O)NCc1nn(-c2ccc(C(F)(F)F)cc2)c2ccccc12 [compound 13, N,N-dimethyl-N′-((1-(4-(trifluoromethyl)phenyl)-1H-indazol-3-yl)methyl)sulfamide]
